This note sets out measurements from patent US11019820B2 (BASF SE, priority 2013, dated 2021).

Read-outs that look alike come from different tables or passages of the source.

A word on the mortality: it is the percentage killed.

Holding throughout (assay type): in vivo
One assay deals with Myzus persicae. Put plainly: Green peach aphid (Myzus persicae) systemic artificial diet test. The note with it: 72 h, read-out: mortality in comparison with untreated controls (aphid mortality). The source says:
For evaluating control of green peach aphid (Myzus persicae) through systemic means the test unit consisted of 96-well-microtiter plates containing liquid artificial diet under an artificial membrane.
The compounds were formulated using a solution containing 75% v/v water and 25% v/v DMSO. Different concentrations of formulated compounds were pipetted into the aphid diet, using a custom built pipetter, at two replications.
After application, 5-8 adult aphids were placed on the artificial membrane inside the microtiter plate wells. The aphids were then allowed to suck on the treated aphid diet and incubated at about 23±1° C. and about 50±5% relative humidity for 3 days. Aphid mortality and fecundity was then visually assessed.

Another assay has as its system Megoura viciae. Put plainly: Vetch aphid (Megoura viciae) leaf disk test. The note with it: foliar, 120 h, read-out: mortality in comparison with untreated controls (aphid mortality). On the procedure: For evaluating control of vetch aphid (Megoura viciae) through contact or systemic means the test unit consisted of 24-well-microtiter plates containing broad bean leaf disks.
The compounds were formulated using a solution containing 75% v/v water and 25% v/v DMSO. Different concentrations of formulated compounds were sprayed onto the leaf disks at 2.5 μl, using a custom built micro atomizer, at two replications.
After application, the leaf disks were air-dried and 5-8 adult aphids placed on the leaf disks inside the microtiter plate wells. The aphids were then allowed to suck on the treated leaf disks and incubated at about 23±1° C. and about 50±5% relative humidity for 5 days. Aphid mortality and fecundity was then visually assessed.

The next assay deals with Dichromothrips corbetti. The experiment in a line: Orchid thrips (Dichromothrips corbetti) floral-immersion test. As to conditions: read-out: mortality in comparison with untreated controls. On the procedure:
Dichromothrips corbetti adults used for bioassay were obtained from a colony maintained continuously under laboratory conditions. For testing purposes, the test compound is diluted in a 1:1 mixture of acetone:water (vol:vol), plus 0.01% vol/vol Alkannuls® EL 620 surfactant.
Thrips potency of each compound was evaluated by using a floral-immersion technique. Plastic petri dishes were used as test arenas. All petals of individual, intact orchid flowers were dipped into treatment solution and allowed to dry. Treated flowers were placed into individual petri dishes along with about 20 adult thrips. The petri dishes were then covered with lids. All test arenas were held under continuous light and a temperature of about 28° C. for duration of the assay. After 3 days, the numbers of live thrips were counted on each flower, and along inner walls of each petri dish. The percent mortality was recorded 72 hours after treatment.

The test system of a further assay is Anthonomus grandis. Put plainly: Boll weevil (Anthonomus grandis) diet microtiter plate test. As to conditions: 120 h, read-out: mortality in comparison with untreated controls (egg and larval mortality). On the procedure: For evaluating control of boll weevil (Anthonomus grandis) the test unit consisted of 96-well-microtiter plates containing an insect diet and 5-10 A. grandis eggs.
The compounds were formulated using a solution containing 75% v/v water and 25% v/v DMSO. Different concentrations of formulated compounds were sprayed onto the insect diet at 5 μl, using a custom built micro atomizer, at two replications.
After application, microtiter plates were incubated at about 25±1° C. and about 75±5% relative humidity for 5 days. Egg and larval mortality was then visually assessed.

For another assay, the system named is Nilaparvata lugens. The experiment in a line: Rice brown plant hopper (Nilaparvata lugens) rice seedling spray test. As to conditions: read-out: mortality in comparison with untreated controls. On the procedure:
Rice seedlings were cleaned and washed 24 hours before spraying. The active compounds were formulated in 50:50 acetone:water (vol:vol) and 0.1% vol/vol surfactant (EL 620) was added. Potted rice seedlings were sprayed with 5 ml test solution, air dried, placed in cages and inoculated with 10 adults. Treated rice plants were kept at about 28-29° C. and relative humidity of about 50-60%. Percent mortality was recorded after 72 hours.

A further assay has as its system Nephotettix virescens. Put plainly: Rice green leafhopper (Nephotettix virescens) rice seedling spray test. As to conditions: read-out: mortality in comparison with untreated controls. On the procedure: Rice seedlings were cleaned and washed 24 hours before spraying. The active compounds were formulated in 50:50 acetone:water (vol:vol), and 0.1% vol/vol surfactant (EL 620) was added. Potted rice seedlings were sprayed with 5 ml test solution, air dried, placed in cages and inoculated with 10 adults. Treated rice plants were kept at about 28-29° C. and relative humidity of about 50-60%. Percent mortality was recorded after 72 hours.

The subject of another assay is Heliothis virescens. Put plainly: Tobacco budworm (Heliothis virescens) diet microtiter plate test. As to conditions: 120 h, 2500 ppm, sprayed onto insect diet, 5 days, read-out: mortality in comparison with untreated controls (egg and larval mortality). The method, then:
For evaluating control of tobacco budworm (Heliothis virescens) the test unit consisted of 96-well-microtiter plates containing an insect diet and 15-25 H. virescens eggs. The compounds were formulated using a solution containing 75% v/v water and 25% v/v DMSO. Different concentrations of formulated compounds were sprayed onto the insect diet at 10 μl, using a custom built micro atomizer, at two replications.
After application, microtiter plates were incubated at about 28±1° C. and about 80±5% relative humidity for 5 days. Egg and larval mortality was then visually assessed.

[1] abbreviates: 2500 ppm, in aphid diet, 3 days.
The mark [2] stands for this setting: 2500 ppm, sprayed broad bean leaf disks, 5 days.
Where [3] appears, read: 500 ppm, floral immersion, 72 hours after treatment.
The mark [4] stands for this setting: 2500 ppm, sprayed onto insect diet, 5 days.
[5] abbreviates: 500 ppm, sprayed rice seedlings, after 72 hours.

Consider `C[C@@H]1C[C@@H](c2cnc(Cl)s2)[n+]2c([O-])c(-c3ccccc3)c(=O)n(C)c21` (racemic) [Compound C-29], for which the mortality at 2500 ppm in the assay with Myzus persicae (setting [1]), in the assay on Megoura viciae (setting [2]) and in the assay with Anthonomus grandis (setting [4]) was greater than 75% in each case. Also, the mortality at 500 ppm in the assay on Dichromothrips corbetti (setting [3]) and with Nilaparvata lugens (setting [5]) was greater than 75% in each case.

Consider `Cn1c2[n+](c([O-])c(-c3ccccc3)c1=O)C(c1cnc(Cl)s1)CC2(C)C` (centres unmarked) [Compound C-40], for which the mortality at 2500 ppm with Myzus persicae (setting [1]), in the assay with Megoura viciae (setting [2]) and in the assay on Anthonomus grandis (setting [4]) was greater than 75% in each case.

With `Cn1c2[n+](c([O-])c(-c3cccc(-c4ncc(C(F)(F)F)cc4Cl)c3)c1=O)C(c1cnc(Cl)s1)CC2` (centres unmarked) [Compound C-48], the mortality at 2500 ppm in the assay with Myzus persicae (setting [1]) and in the assay with Megoura viciae (setting [2]) was greater than 75% in each case. In addition, the mortality at 500 ppm in the assay on Dichromothrips corbetti (setting [3]) was greater than 75%.

With `Cn1c2[n+](c([O-])c(-c3cccc(C(F)(F)F)c3)c1=O)[C@@H](c1cnc(Cl)s1)CC2` (single isomer, unassigned) [Compound C-28], the mortality at 500 ppm in the assay on Dichromothrips corbetti (setting [3]), in the assay on Nephotettix virescens (setting [5]) and with Nilaparvata lugens (setting [5]) was greater than 75% throughout.

For the molecule `CCn1c([O-])c(-c2ccccc2)c(=O)[n+]2c1CCC2c1cnc(Cl)s1` (centres unmarked) [Compound C-24], the mortality at 2500 ppm in the assay with Myzus persicae (setting [1]) and in the assay with Megoura viciae (setting [2]) was greater than 75% each time. The mortality at 500 ppm in the assay with Dichromothrips corbetti (setting [3]), with Nephotettix virescens (setting [5]) and in the assay on Nilaparvata lugens (setting [5]) was greater than 75% each time.

As to `Cn1c2[n+](c([O-])c(-c3cc(Cl)cc(Cl)c3)c1=O)C(c1cnc(Cl)s1)CC2` (centres unmarked) [Compound C-50], the mortality at 2500 ppm in the assay on Myzus persicae (setting [1]) and with Megoura viciae (setting [2]) was greater than 75% in each case. For the same molecule, the mortality at 500 ppm in the assay on Dichromothrips corbetti (setting [3]) is greater than 75%.

On to `C=CCn1c([O-])c(-c2cc(Cl)cc(Cl)c2)c(=O)[n+]2c1CCC2c1cnc(Cl)s1` (centres unmarked) [Compound C-31], for which the mortality at 2500 ppm in the assay with Myzus persicae (setting [1]) and in the assay on Megoura viciae (setting [2]) was greater than 75% each time.

As for `C[n+]1c([O-])c(-c2ccccc2)c(=O)n2c1CCC2c1cnc(Cl)s1` (centres unmarked) [Compound C-6, 6-(2-chlorothiazol-5-yl)-1-methyl-4-oxo-3-phenyl-3,6,7,8-tetrahydro-2H-pyrrolo[1,2-a]pyrimidin-5-ium-2-olate], the mortality at 2500 ppm in the assay with Myzus persicae and in the assay with Megoura viciae was greater than 75% throughout. Further, the mortality at 500 ppm with Dichromothrips corbetti (72 h), in the assay with Nephotettix virescens (72 h) and in the assay on Nilaparvata lugens (72 h) was greater than 75% in each case.

As to `Cn1c2[n+](c([O-])c(-c3ccccc3)c1=O)C(c1cnc(Cl)s1)CO2` (centres unmarked) [Compound C-19], the mortality at 2500 ppm in the assay on Megoura viciae is greater than 75%.

Turning to `CC[n+]1c([O-])c(-c2ccccc2)c(=O)n2c1CCC2c1ccc(Cl)nc1` (centres unmarked) [Compound C-2], the mortality at 2500 ppm in the assay with Myzus persicae and in the assay on Megoura viciae was greater than 75% throughout. In addition, the mortality at 500 ppm in the assay with Dichromothrips corbetti (72 h) and in the assay with Nephotettix virescens (72 h) was greater than 75% in each case.

`Cn1c2[n+](c([O-])c(-c3ccccc3)c1=O)C(c1cnc(Cl)c(-c3ccccc3)c1)CC2` (centres unmarked) [Compound C-23]: in the assay on Myzus persicae (setting [1]), the mortality at 2500 ppm is greater than 75%.

In the case of `CC(C)[n+]1c([O-])c(-c2ccccc2)c(=O)n2c1CCC2c1ccc(Cl)nc1` (centres unmarked) [Compound C-3], the mortality at 2500 ppm in the assay with Myzus persicae, in the assay with Megoura viciae (in Vicia faba) and with Anthonomus grandis was greater than 75% each time. In addition, the mortality at 500 ppm in the assay with Dichromothrips corbetti (72 h) was greater than 75%.

Consider `CCn1c([O-])c(-c2cccc(-c3ccccc3)c2)c(=O)[n+]2c1CCC2c1cnc(Cl)s1` (centres unmarked) [Compound C-49], for which the mortality at 2500 ppm in the assay with Myzus persicae (setting [1]) and with Megoura viciae (setting [2]) was greater than 75% in each case. Moreover, the mortality at 500 ppm in the assay with Dichromothrips corbetti (setting [3]) was greater than 75%.

Consider `C=CCn1c([O-])c(-c2ccccc2)c(=O)[n+]2c1CCC2c1cnc(Cl)s1` (centres unmarked) [Compound C-17], for which the mortality at 2500 ppm with Myzus persicae (setting [1]) is greater than 75%.

Regarding `CCn1c([O-])c(-c2cccc(C(F)(F)F)c2)c(=O)[n+]2c1CCC2c1cnc(Cl)s1` (centres unmarked) [Compound C-27], the mortality at 2500 ppm in the assay on Myzus persicae (setting [1]) and with Megoura viciae (setting [2]) was greater than 75% in each case. In addition, the mortality at 500 ppm in the assay with Dichromothrips corbetti (setting [3]) was greater than 75%.

For the molecule `O=c1c(-c2ccccc2)c([O-])n(Cc2ccccc2)c2[n+]1C(c1cnc(Cl)s1)CC2` (centres unmarked) [Compound C-34], the mortality at 2500 ppm in the assay on Myzus persicae (setting [1]) and in the assay with Megoura viciae (setting [2]) was greater than 75% each time. For the same molecule, in the assay on Dichromothrips corbetti (setting [3]), the mortality at 500 ppm is greater than 75%.

Turning to `CCn1c([O-])c(-c2cccc(C(F)(F)F)c2)c(=O)[n+]2c1COC2c1ccc(Cl)nc1` (centres unmarked) [Compound C-32], the mortality at 2500 ppm with Myzus persicae was greater than 75%.

Regarding `Cn1c2[n+](c([O-])c(-c3cccc(C(F)(F)F)c3)c1=O)C(c1cnc(Cl)s1)CC2` (centres unmarked) [Compound C-22], the mortality at 2500 ppm with Myzus persicae (setting [1]) and in the assay with Megoura viciae (setting [2]) was greater than 75% in each case. Also, the mortality at 500 ppm in the assay on Dichromothrips corbetti (setting [3]) and in the assay with Nephotettix virescens (setting [5]) was greater than 75% throughout.

Take `CCn1c([O-])c(-c2ccc(OC)cc2)c(=O)[n+]2c1CCC2c1cnc(Cl)s1` (centres unmarked) [Compound C-47]: the mortality at 2500 ppm in the assay on Myzus persicae (setting [1]), in the assay on Megoura viciae (setting [2]) and in the assay with Anthonomus grandis (setting [4]) was greater than 75% each time. Also, the mortality at 500 ppm in the assay on Dichromothrips corbetti (setting [3]) and with Nephotettix virescens (setting [5]) was greater than 75% throughout.

Regarding `C[n+]1c([O-])c(-c2ccccc2)c(=O)n2c1CCCC2c1ccc(Cl)nc1` (centres unmarked) [Compound C-8, 6-(6-chloro-3-pyridyl)-1-methyl-4-oxo-3-phenyl-6,7,8,9-tetrahydropyrido[1,2-a]pyrimidin-5-ium-2-olate], the mortality at 2500 ppm in the assay on Myzus persicae and in the assay on Megoura viciae was greater than 75% in each case. Also, the mortality at 500 ppm in the assay with Dichromothrips corbetti (72 h) and in the assay on Nephotettix virescens (72 h) was greater than 75% each time.

Turning to `CCn1c([O-])c(-c2cccc(-c3ccccc3)c2)c(=O)[n+]2c1COC2c1ccc(Cl)nc1` (centres unmarked) [Compound C-43], in the assay with Myzus persicae (setting [1]), the mortality at 2500 ppm was greater than 75%.

Consider `CCn1c([O-])c(-c2cccc(C(F)(F)F)c2)c(=O)[n+]2c1COC2c1cnc(Cl)s1` (centres unmarked) [Compound C-35], for which, in the assay on Dichromothrips corbetti (setting [3]), the mortality at 500 ppm was greater than 75%.

For the molecule `Cn1c2[n+](c([O-])c(-c3cccc(-c4ccccc4)c3)c1=O)C(c1cnc(Cl)s1)CC2` (centres unmarked) [Compound C-45], the mortality at 2500 ppm with Myzus persicae (setting [1]), in the assay with Megoura viciae (setting [2]) and in the assay on Heliothis virescens was greater than 75% each time. Further, in the assay with Dichromothrips corbetti (setting [3]), the mortality at 500 ppm is greater than 75%.

As for `CSc1ncc(C2CCCc3n2c(=O)c(-c2ccccc2)c([O-])[n+]3C)s1` (centres unmarked) [Compound C-12], in the assay on Myzus persicae (setting [1]), the mortality at 2500 ppm is greater than 75%.

Consider `C[n+]1c([O-])c(-c2ccccc2)c(=O)n2c1CCCC2c1cnc(Cl)s1` (centres unmarked) [Compound C-13], for which the mortality at 2500 ppm in the assay with Myzus persicae (setting [1]) and in the assay with Megoura viciae (setting [2]) was greater than 75% in each case.

`COC1=NC(c2c[n+]3c(=O)c(-c4ccccc4)c([O-])n(Cc4ccccc4)c3s2)CC1` (centres unmarked) [Compound C-21]: the mortality at 2500 ppm in the assay with Myzus persicae (setting [1]) was greater than 75%.

In the case of `C=CCn1c([O-])c(-c2cccc(C(F)(F)F)c2)c(=O)[n+]2c1CCC2c1cnc(Cl)s1` (centres unmarked) [Compound C-41], the mortality at 2500 ppm in the assay on Myzus persicae (setting [1]) is greater than 75%.
